According to patent publication US8198294B2, “Treatment of dyskinesia” (Motac Neuroscience Limited, priority 2001, dated 2012):

Tested on: MPTP-lesioned marmoset
Experiment: L-DOPA-induced dyskinesia in MPTP-treated marmoset model of Parkinson's disease
Assay type: in vivo, common marmosets (Callithrix jacchus)
Details: for Median total dyskinesia scores compared to animals treated with L-DOPA and vehicle / Animals in which dyskinesia was completely abolished: antagonist 10 mg/kg i.p. with L-DOPA 8 mg/kg p.o.; for Median total dyskinesia scores compared to animals treated with L-DOPA and vehicle: cumulative scores; for Animals in which dyskinesia was completely abolished: n=6
Method: The effect of the selective mu opioid receptor antagonist Cyprodime on dyskinesia was assessed in a 1-methyl-4-phenyl-1,2,3,6-tetrahydropyridine (MPTP)-treated marmoset model of Parkinson's disease.
Six adult common marmosets (Callithrix jacchus) were obtained from a closed colony bred at Manchester University, BSU. This study was conducted in the U.K. in accordance with the requirements of The Animals (Scientific Procedures) Act, 1986. The animals were kept in controlled housing conditions, with constant temperature (25° C.), relative humidity (50%) and 12 h light/dark cycles (08.00-20.00 light on). The animals had free access to food (Masuri primate diet-E, Scientific Dietary Services, UK), fresh fruit supplements and water. Marmosets were rendered parkinsonian by treatment with 1-methyl-4-phenyl-1,2,3,6-tetrahydropyridine (MPTP) hydrochloride (Sigma, 2 mg/kg s.c. for 5 consecutive days). […] The animals were allowed to recover for a period of 14 weeks until behavioural assessment was commenced.
Dyskinesia was established in these animals by twice daily treatment with L-DOPA (10 mg/kg p.o. as Madopar Dispersible®) for 3 weeks.
Opioid antagonists, or vehicle, were administered with L-DOPA to assess the effects of adjunctive treatment on L-DOPA-induced dyskinesia and the anti-parkinsonian efficacy of L-DOPA. All animals received all treatments. Treatments in any one animal were separated by at least three days. Naltrexone (non-selective antagonist) was administered at a dose of 10 mg/kg (i.p), cyprodime (mu selective antagonist) was administered at a dose of 10 mg/kg (i.p.), naltrindole (delta selective antagonist) was administered at a dose of 10 mg/kg (i.p.), nor-binaltorphimine (nor-BNI, kappa selective antagonist) was administered at a dose of 20 mg/kg (i.p.). Drugs or vehicle were administered with L-DOPA treatment (8 mg/kg p.o.). Behaviour was assessed for 3 hours post drug administration.
A battery of behavioural assessments was performed to assess the intensity, range and speed of movements. In addition, postural abnormalities and dyskinesia were assessed. • 1) Parkinsonian disability—non-parametric measures based on the following scales • i) Motor activity (repertoire) score: 0=no movement at all, 1=movement of head or trunk, 2=movement of limbs but no locomotion, on the floor of the cage, 3=on wall of cage/perch, movement of head or trunk, 4=on wall of cage/movement of limbs but no locomotion, 5=walking around/eating on floor of cage, 6=hopping on floor of cage, 7=climbing onto wall of cage or perch, 8=climbing up and down the walls of the cage or along perch, 9=running, jumping, climbing between cage walls/perch/roof, uses limbs through a wide range of motion and activity. • ii) Bradykinesia score: 0=normal speed of movement, 1=moderate slowing of movement, difficulty initiating and maintaining movement 2=akinetic, unable to move (maximum score in 30 minutes=12). • iii) Posture score: 0=normal, upright, holds head up, 1=impaired, crouched, face down. (maximum score in 30 minutes=6). • 2) Dyskinesia • 0=Absent • 1=Mild, fleeting • 2=Moderate, not interfering with normal activity • 3=Marked, at times interfering with normal activity • 4=Severe, continuous, replacing normal activity
Parameters 1 and 2 were assessed every 30 minutes throughout a six hour period by post-hoc analysis of videotape recordings. Assessment was made by an observer blinded to the treatment administered.
Non-parametric measures of mobility, bradykinesia, posture and dyskinesia were cumulated and compared between treatments with a Friedman's test with post hoc Dunn's test where appropriate.

[1] = L-DOPA 8 mg/kg p.o., MPTP-treated marmosets

Row | Compound | Median total dyskinesia scores compared to animals treated with L-DOPA and vehicle (n=6, FIG. 1) | Animals in which dyskinesia was completely abolished | further results
1 | N[C@@H](Cc1ccc(O)c(O)c1)C(=O)O [L-DOPA] |  |  | Parkinsonian symptoms after L-DOPA treatment [1]: reversed; Time to commencement of dyskinesia after L-DOPA administration [1]: ≤ 5 min
2 | COc1cccc2c1[C@]13CCN(CC4CC4)[C@H](C2)[C@]1(OC)CCC(=O)C3 [cyprodime] | markedly reduced | 100% | Dyskinesia exhibited by each treated animal (10 mg/kg i.p. with L-DOPA 8 mg/kg p.o., individual animals): minimal or no dyskinesia
3 | O=C1CC[C@@]2(O)[C@H]3Cc4ccc(O)c5c4[C@@]2(CCN3CC2CC2)[C@H]1O5 [naltrexone] | reduced | 33% | 
4 | Oc1ccc2c3c1O[C@H]1c4[nH]c5ccccc5c4C[C@@]4(O)[C@@H](C2)N(CC2CC2)CC[C@]314 [naltrindole] | reduced | 50% | 
5 | Oc1ccc2c3c1O[C@H]1c4[nH]c5c(c4C[C@@]4(O)[C@@H](C2)N(CC2CC2)CC[C@]314)C[C@@]1(O)[C@H]2Cc3ccc(O)c4c3[C@@]1(CCN2CC1CC1)[C@H]5O4 [nor-BNI, nor-binaltorphimine] |  |  | Median total dyskinesia scores (effect on L-DOPA-induced dyskinesia) (antagonist 20 mg/kg i.p. with L-DOPA 8 mg/kg p.o., n=6, FIG. 1): no effect
